5 molecules from ChEMBL document CHEMBL1201862, “PubChem BioAssay data set” (2004) can be followed below.

Among the test systems are HL-60; MDA-N; CAKI-1; SN12C; SK-OV-3; OVCAR-8; EKVX; HCT-15; MOLT-4; OVCAR-5; UACC-257; COLO 205; MDA-MB-435; UO-31; NCI-H460; NCI-H226; SK-MEL-5; ACHN; HOP-92.
Common to all, as to assay: NCI-60 cell line screen, 48 h

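96-well plates; 48 h exposure; 5 concentrations. Endpoints by linear interpolation between flanking doses. Not reached: highest tested concentration assigned. GI50 is the concentration that inhibits growth by half.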 The source made the active and inactive calls. Cut-off read from the data, not from the text of the source: active = GI50 up to about 1.1 µM and inactive = higher. A value given as a limit tells only on which side of the number the result lay.

As to `CC(=O)OC(Cc1c(O)c2c(C)cccc2oc1=O)C(C)(C)O` (stereo unspecified), the GI50 in the test on HL-60 is 72.6 µM (inactive); with MDA-N, > 100 µM (inactive); in the test on CAKI-1, > 100 µM (inactive); with SN12C it was > 100 µM (inactive); in the test on SK-OV-3, > 100 µM (inactive); in the test with OVCAR-8, > 100 µM (inactive). Besides, the GI50 is > 100 µM (inactive) in the test with EKVX; above 100 µM in the test on HCT-15; 46.8 µM (inactive) in the test with MOLT-4; > 100 µM (inactive) in the test with OVCAR-5; > 100 µM (inactive) in the test on UACC-257; > 100 µM (inactive) in the test on COLO 205. Further, the GI50 with MDA-MB-435, in the test on UO-31, with NCI-H460, in the test on NCI-H226, in the test on SK-MEL-5 and in the test with ACHN was > 100 µM (inactive) each time.
Regarding `CC(C)(O)/C1=C/C=C/CCCCCCCCCC1`, the GI50 in the test on HL-60 is 28.9 µM (inactive); in the test on MDA-N it was > 100 µM (inactive); in the test on CAKI-1 it was > 100 µM (inactive); in the test on SN12C it was > 100 µM (inactive); in the test on SK-OV-3 it was > 100 µM (inactive); with OVCAR-8 it was > 100 µM (inactive). For the same molecule, the GI50 in the test with EKVX was > 100 µM (inactive); in the test on HCT-15 it was above 100 µM; in the test on MOLT-4 it was 28.1 µM (inactive); in the test with HOP-92, 81.3 µM (inactive); with OVCAR-5 it was > 100 µM (inactive); with UACC-257, > 100 µM (inactive). The GI50 in the test on COLO 205 was > 100 µM (inactive); with MDA-MB-435, > 100 µM (inactive); with UO-31, 51.9 µM (inactive); in the test with NCI-H460, > 100 µM (inactive); in the test with NCI-H226 it was > 100 µM (inactive); with SK-MEL-5 it was 0.246 µM (active). Also, the GI50 in the test on ACHN was > 100 µM (inactive).
As to `C=C(C)COC1CCCCO1` (stereo unspecified), the GI50 in the test on HL-60, in the test on MDA-N, with CAKI-1, in the test with SN12C, in the test with SK-OV-3 and in the test with OVCAR-8 was > 100 µM (inactive) each time. The GI50 in the test with EKVX was > 100 µM (inactive); in the test with HCT-15, above 100 µM; in the test on MOLT-4 it was > 100 µM (inactive); in the test on OVCAR-5, > 100 µM (inactive); with UACC-257, > 100 µM (inactive); with COLO 205, > 100 µM (inactive). Besides, the GI50 in the test on MDA-MB-435, in the test on UO-31, in the test on NCI-H460, in the test with NCI-H226, in the test on SK-MEL-5 and in the test with ACHN was > 100 µM (inactive) in each case.
As for `Cn1ccc(C(=O)NCCOCCNC(=O)c2ccn(C)c(=O)c2O)c(O)c1=O`, the GI50 in the test on MDA-N was > 100 µM (inactive); in the test on CAKI-1, > 100 µM (inactive); in the test with SN12C, > 100 µM (inactive); with OVCAR-8 it was > 100 µM (inactive); with HCT-15, above 100 µM; in the test on HOP-92 it was > 100 µM (inactive). The GI50 in the test with UACC-257, with COLO 205, with MDA-MB-435, with UO-31, with NCI-H460 and with NCI-H226 was > 100 µM (inactive) in each case. The GI50 in the test on SK-MEL-5 and with ACHN was > 100 µM (inactive) in each case.
As to `CN1CCN(CCCN2c3ccccc3Sc3ccc(C(F)(F)F)cc32)CC1`, the GI50 with HL-60 was 4.58 µM (inactive); with MDA-N, 3.2 µM (inactive); with CAKI-1 it was 9.64 µM (inactive); with SN12C, 7.57 µM (inactive); with SK-OV-3, 13.5 µM (inactive); in the test on OVCAR-8, 13.1 µM (inactive). Further, the GI50 in the test with EKVX is 10.6 µM (inactive); with HCT-15, 4.33 µM; in the test with MOLT-4, 2.92 µM (inactive); in the test with OVCAR-5, 11.2 µM (inactive); in the test on UACC-257, 1.91 µM (inactive); with MDA-MB-435, 2.92 µM (inactive). In addition, the GI50 in the test with UO-31 was 6.32 µM (inactive); in the test with NCI-H460 it was 2.24 µM (inactive); in the test on NCI-H226 it was 13.2 µM (inactive); in the test with SK-MEL-5, 1.91 µM (inactive); in the test with ACHN, 10.7 µM (inactive).
